ChEMBL document CHEMBL4229572, “VU6007477, a Novel M1 PAM Based on a Pyrrolo[2,3-b]pyridine Carboxamide Core Devoid of Cholinergic Adverse Events” (ACS Med Chem Lett, 2018)

What was measured:
[1] = molecular target: T1, Muscarinic acetylcholine receptor M1 (Homo sapiens, UniProt P11229); assay: Agonist activity at human M1 receptor expressed in CHO cells assessed as increase in calcium mobilization measured after 2.5 mins by Fluo-4-AM dye based assay; assay type: functional, cell-based
T1 sequence (P11229 whole entry): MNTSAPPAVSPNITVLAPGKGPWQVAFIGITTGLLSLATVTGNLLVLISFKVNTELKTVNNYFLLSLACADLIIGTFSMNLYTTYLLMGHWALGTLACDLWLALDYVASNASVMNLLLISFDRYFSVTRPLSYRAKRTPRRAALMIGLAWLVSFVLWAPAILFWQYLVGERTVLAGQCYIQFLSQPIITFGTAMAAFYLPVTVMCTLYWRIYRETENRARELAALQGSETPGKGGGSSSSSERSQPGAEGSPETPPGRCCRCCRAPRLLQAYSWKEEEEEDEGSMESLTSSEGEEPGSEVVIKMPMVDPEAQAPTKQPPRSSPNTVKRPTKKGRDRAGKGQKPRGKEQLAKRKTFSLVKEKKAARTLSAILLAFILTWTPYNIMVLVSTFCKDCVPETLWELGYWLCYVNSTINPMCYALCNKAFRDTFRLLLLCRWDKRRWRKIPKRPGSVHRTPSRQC

[2] = Protein binding in rat brain assessed as unbound fraction; assay type: ADME, tissue-based
[3] = test system: Mus musculus; assay: Cholinergic toxicity in C57BL/6J mouse assessed as induction of seizure activity at 100 mg/kg, ip measured within 30 mins; assay type: organism-based; settings: in vivo, 0.5 h
[4] = molecular target: T2, Muscarinic acetylcholine receptor M2 (Homo sapiens, UniProt P08172); assay: Positive allosteric modulation of human M2 receptor expressed in CHO cells co-expressing Gqi5 assessed as increase in acetylcholine-induced calcium mobilization pretreated for 2.5 mins followed by acetylcholine addition and measured after 1 min by Fluo-4-AM dye based assay; assay type: functional, cell-based
T2 sequence (P08172 whole entry): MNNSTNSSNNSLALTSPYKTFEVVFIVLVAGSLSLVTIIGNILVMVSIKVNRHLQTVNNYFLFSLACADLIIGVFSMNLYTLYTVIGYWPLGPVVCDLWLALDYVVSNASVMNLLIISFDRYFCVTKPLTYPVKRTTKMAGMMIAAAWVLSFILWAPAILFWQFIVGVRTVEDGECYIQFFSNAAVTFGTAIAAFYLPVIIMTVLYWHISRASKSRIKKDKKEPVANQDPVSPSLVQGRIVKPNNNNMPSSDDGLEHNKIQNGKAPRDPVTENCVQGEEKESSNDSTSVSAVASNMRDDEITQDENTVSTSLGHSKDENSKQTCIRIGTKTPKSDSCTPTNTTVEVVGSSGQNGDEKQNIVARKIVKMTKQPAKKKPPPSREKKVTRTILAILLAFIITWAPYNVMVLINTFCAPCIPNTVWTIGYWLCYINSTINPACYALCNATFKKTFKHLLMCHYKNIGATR

[5] = molecular target: T3, Muscarinic acetylcholine receptor M4 (Homo sapiens, UniProt P08173); assay: Positive allosteric modulation of human M4 receptor expressed in CHO cells co-expressing Gqi5 assessed as increase in acetylcholine-induced calcium mobilization pretreated for 2.5 mins followed by acetylcholine addition and measured after 1 min by Fluo-4-AM dye based assay; assay type: functional, cell-based
T3 sequence (P08173 whole entry): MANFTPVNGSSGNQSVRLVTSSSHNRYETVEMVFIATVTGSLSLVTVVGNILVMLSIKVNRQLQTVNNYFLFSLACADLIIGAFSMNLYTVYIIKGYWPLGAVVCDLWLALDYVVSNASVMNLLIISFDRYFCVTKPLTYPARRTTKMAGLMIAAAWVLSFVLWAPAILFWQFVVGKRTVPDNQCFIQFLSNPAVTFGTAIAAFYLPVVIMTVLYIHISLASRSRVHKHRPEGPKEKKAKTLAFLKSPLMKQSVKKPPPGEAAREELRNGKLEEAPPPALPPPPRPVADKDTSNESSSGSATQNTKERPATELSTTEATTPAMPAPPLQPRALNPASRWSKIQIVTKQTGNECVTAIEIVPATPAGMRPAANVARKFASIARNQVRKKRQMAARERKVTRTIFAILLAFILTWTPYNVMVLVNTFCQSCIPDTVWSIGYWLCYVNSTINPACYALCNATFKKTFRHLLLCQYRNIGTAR

[6] = test system: P-gp; assay: Substrate activity at P-gp (unknown origin) assessed as efflux ratio of permeability; assay type: ADME; settings: human, not told

Structure (SMILES): Cn1cc(-c2ccc(Cc3cc(C(=O)NC4CCOCC4)nc4c3ccn4C)cn2)cn1
- EC50 [1]: 0.324 µM
- fraction unbound [2]: 0.08
- Activity [3]: Non-Toxic
- EC50 [4]: > 30 µM
- EC50 [5]: > 30 µM
- efflux ratio [6]: 4.5
